Experimental data: the supplement of paper PMC11208160

Test: recombinant barcode read abundance after kanamycin selection (control-corrected) (log10(CPM+1)); higher = more efficient recombination; sequences stand for … in AGTGCAGAGAAAATCGGCCAGTTTTCTCTGCCTGCAGTCCGCATGCCGT…AGATTTATGCAGCGGACTGCCTTTCTCCCAAAGTGATAAACCGGACAGTATCATGGACCGGTTTTCCCGGTAATCCGTATTTGCAAGGTTGGTTTCACT; site = the 11-nt target
Procedure, shortened: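 Targets and IS621 bridge RNA target-binding loops were paired in oligos, each with a promoter, a barcode and the J23119-driven first 104 bridge RNA bases. A vector carrying the remaining 73 bp and a T7-inducible recombinase received these by Gibson cloning, and the pool was co-electroporated into E. coli with a donor plasmid. Duplicate plates contained chloramphenicol/ampicillin LB agar (control) or chloramphenicol/ampicillin/kanamycin with 0.1 mM IPTG. Recombination efficiency comes from averaged, control-corrected counts per million of recombinant-junction barcodes, reported as log10(CPM+1).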
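Also: IS621 recombinase and bridge RNA in Escherichia coli cells.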

Sequence | recombinant barcode read abundance (log10)
GGTCATGCTTGGGTTCTAACCTGTTGCCT (site GGTCATGCTAG) | 1.11
GGTCATGCTTGGGTTCTAACCTGTTGCCT (site GGTCATTCTAG) | 0.0304
GGTCCACCTTGGGTTCTAACCTGTTGCCT (site AGTCCACCTAG) | 0.386
GGTCCACCTTGGGTTCTAACCTGTTGCCT (site CGTCCACCTAG) | 0.181
GGTCCACCTTGGGTTCTAACCTGTTGCCT (site GGTCCACCTAG) | 1.07
GGTCCACCTTGGGTTCTAACCTGTTGCCT (site TGTCCACCTAG) | 0.108
GGTCCCACTTGGGTTCTAACCTGTTGCCT (site GGGCTCACTAG) | 0.0761
GGTCCCACTTGGGTTCTAACCTGTTGCCT (site GGTCCCACTAG) | 0.943
GGTCCGTCTTGGGTTCTAACCTGTTGCAT (site AGTCGGTCTAT) | 0.127
GGTCCGTCTTGGGTTCTAACCTGTTGCAT (site GGTCCGTCTAT) | 1.16
GGTCCTACTTGGGTTCTAACCTGTTGCCT (site GATCCTACTAG) | 0.241
GGTCCTACTTGGGTTCTAACCTGTTGCCT (site GCTCCTACTAG) | 0.0585
GGTCCTACTTGGGTTCTAACCTGTTGCCT (site GGTCCTACTAG) | 0.355
GGTCCTACTTGGGTTCTAACCTGTTGCCT (site GTTCCTACTAG) | 0.187
GGTCGAACTTGGGTTCTAACCTGTTGCCT (site GGTCAAACTAG) | 0.107
GGTCGAACTTGGGTTCTAACCTGTTGCCT (site GGTCCAACTAG) | 0.127
GGTCGAACTTGGGTTCTAACCTGTTGCCT (site GGTCGAACTAG) | 0.624
GGTCGAACTTGGGTTCTAACCTGTTGCCT (site GGTCTAACTAG) | 0.0343
GGTCGCTCTTGGGTTCTAACCTGTTGCCT (site GGACGCTCTAG) | 0.0961
GGTCGCTCTTGGGTTCTAACCTGTTGCCT (site GGTCGCTCTAG) | 1.35
GGTGACTCTTGGGTTCTAACCTGTTGCCT (site GGTGACTCTAG) | 1.15
GGTGACTCTTGGGTTCTAACCTGTTGCCT (site GGTGGATCTAG) | 0.114

Sequence | recombinant barcode read abundance (log10)
GGTGCTCCTTGGGTTCTAACCTGTTGCAA (site GGTGCTCCTAT) | 0.0718
GGTGCTCCTTGGGTTCTAACCTGTTGCAA (site GGTGCTCCTCT) | 0.0634
GGTGCTCCTTGGGTTCTAACCTGTTGCAA (site GGTGCTCCTGT) | 0.0326
GGTGCTCCTTGGGTTCTAACCTGTTGCAA (site GGTGCTCCTTT) | 0.3
GGTGCTCCTTGGGTTCTAACCTGTTGCAG (site GGTGCTCCTAT) | 0.0917
GGTGCTCCTTGGGTTCTAACCTGTTGCAG (site GGTGCTCCTCT) | 0.88
GGTGCTCCTTGGGTTCTAACCTGTTGCAG (site GGTGCTCCTGT) | 0
GGTGCTCCTTGGGTTCTAACCTGTTGCAG (site GGTGCTCCTTT) | 0.0255
GGTGCTCCTTGGGTTCTAACCTGTTGCAT (site GGTGCTCCTAT) | 0.914
GGTGCTCCTTGGGTTCTAACCTGTTGCAT (site GGTGCTCCTCT) | 0.017
GGTGCTCCTTGGGTTCTAACCTGTTGCAT (site GGTGCTCCTGT) | 0.0976
GGTGCTCCTTGGGTTCTAACCTGTTGCAT (site GGTGCTCCTTT) | 0.0242
GGTGGGACTTGGGTTCTAACCTGTTGCAC (site AAATCTGCTAG) | 0.259
GGTGGGACTTGGGTTCTAACCTGTTGCAC (site GGTGGGACTGT) | 1.95
GGTTCATCTTGGGTTCTAACCTGTTGCCA (site GGCTCCTCTTG) | 0.0691
GGTTCATCTTGGGTTCTAACCTGTTGCCA (site GGTTCATCTTG) | 0.0738
GGTTCCTCTTGGGTTCTAACCTGTTGCGG (site GGTTCCTCTCC) | 0.933
GGTTCCTCTTGGGTTCTAACCTGTTGCGG (site TACCTAACTAA) | 0.118
GGTTGACCTTGGGTTCTAACCTGTTGCAT (site GGTTCACCTCT) | 0.226
GGTTGACCTTGGGTTCTAACCTGTTGCAT (site GGTTGACCTAT) | 0.913
GTAACCTCTTGGGTTCTAACCTGTTGCCC (site GTAACCTCTAG) | 0.928
GTAACCTCTTGGGTTCTAACCTGTTGCCC (site GTAACCTCTCG) | 0.179

Sequence | recombinant barcode read abundance (log10)
GTAACCTCTTGGGTTCTAACCTGTTGCCC (site GTAACCTCTGG) | 1.97
GTAACCTCTTGGGTTCTAACCTGTTGCCC (site GTAACCTCTTG) | 0.128
GTAACTACTTGGGTTCTAACCTGTTGCAC (site CTAATTACTGT) | 0.0302
GTAACTACTTGGGTTCTAACCTGTTGCAC (site GTAACTACTGT) | 0.926
GTAACTACTTGGGTTCTAACCTGTTGCGG (site GTAACTACTCC) | 2.1
GTAACTACTTGGGTTCTAACCTGTTGCGG (site GTCACTACTAC) | 0.0797
GTAACTCCTTGGGTTCTAACCTGTTGCCT (site GTAACTCCTAG) | 0.487
GTAACTCCTTGGGTTCTAACCTGTTGCCT (site TGAACTCCTAG) | 0.041
GTAACTGCTTGGGTTCTAACCTGTTGCCT (site GTAAATGCTAG) | 0.373
GTAACTGCTTGGGTTCTAACCTGTTGCCT (site GTAACTGCTAG) | 0.941
GTAACTGCTTGGGTTCTAACCTGTTGCCT (site GTAAGTGCTAG) | 0.084
GTAACTGCTTGGGTTCTAACCTGTTGCCT (site GTAATTGCTAG) | 0.0184
GTAAGGACTTGGGTTCTAACCTGTTGCTT (site GTAAGAACTAA) | 0.738
GTAAGGACTTGGGTTCTAACCTGTTGCTT (site GTAAGCACTAA) | 0.156
GTAAGGACTTGGGTTCTAACCTGTTGCTT (site GTAAGGACTAA) | 1.16
GTAAGGACTTGGGTTCTAACCTGTTGCTT (site GTAAGTACTAA) | 0.0109
GTAAGTACTTGGGTTCTAACCTGTTGCCA (site ATAAGTCCTTG) | 0.063
GTAAGTACTTGGGTTCTAACCTGTTGCCA (site GTAAGTACTTG) | 1.54
GTAATTACTTGGGTTCTAACCTGTTGCCT (site GTAATTACTAG) | 0.441
GTAATTACTTGGGTTCTAACCTGTTGCCT (site TACGCACCTTC) | 0.0355
GTACAGCCTTGGGTTCTAACCTGTTGCCT (site GTACAGCCTAG) | 1.35
GTACAGCCTTGGGTTCTAACCTGTTGCCT (site GTACCGCCTAG) | 0.0712

Sequence | recombinant barcode read abundance (log10)
GTACAGCCTTGGGTTCTAACCTGTTGCCT (site GTACGGCCTAG) | 0.0431
GTACAGCCTTGGGTTCTAACCTGTTGCCT (site GTACTGCCTAG) | 0.155
GTACATCCTTGGGTTCTAACCTGTTGCGT (site AAGGTCACTCA) | 0.0803
GTACATCCTTGGGTTCTAACCTGTTGCGT (site GTACATCCTAC) | 2.13
GTACGCGCTTGGGTTCTAACCTGTTGCGT (site CTACGCGCTAA) | 0.392
GTACGCGCTTGGGTTCTAACCTGTTGCGT (site GTACGCGCTAC) | 1.14
GTACGCTCTTGGGTTCTAACCTGTTGCTT (site GGAAGCTCTAA) | 0
GTACGCTCTTGGGTTCTAACCTGTTGCTT (site GTACGCTCTAA) | 0.218
GTACGGTCTTGGGTTCTAACCTGTTGCAT (site GTACGATCTTT) | 0.107
GTACGGTCTTGGGTTCTAACCTGTTGCAT (site GTACGGTCTAT) | 2
GTACGTCCTTGGGTTCTAACCTGTTGCTT (site GTACGTCCTAA) | 0.777
GTACGTCCTTGGGTTCTAACCTGTTGCTT (site GTACGTCCTAC) | 0.143
GTACGTCCTTGGGTTCTAACCTGTTGCTT (site GTACGTCCTAG) | 0.299
GTACGTCCTTGGGTTCTAACCTGTTGCTT (site GTACGTCCTAT) | 0.374
GTACTGCCTTGGGTTCTAACCTGTTGCCT (site GTACAGCCTAG) | 0.52
GTACTGCCTTGGGTTCTAACCTGTTGCCT (site GTACCGCCTAG) | 0.366
GTACTGCCTTGGGTTCTAACCTGTTGCCT (site GTACGGCCTAG) | 0.531
GTACTGCCTTGGGTTCTAACCTGTTGCCT (site GTACTGCCTAG) | 1.28
GTAGACACTTGGGTTCTAACCTGTTGCCG (site GTAAACACTCT) | 0.142
GTAGACACTTGGGTTCTAACCTGTTGCCG (site GTAGACACTCG) | 1.28
